Test results published in paper PMC10373461, “Discovery of a Hidden Trypanosoma cruzi Spermidine Synthase Binding Site and Inhibitors through In Silico, In Vitro, and X-ray Crystallography” (ACS Omega, 2023).

How the values were obtained:
[1] = target: T1, Trypanosoma cruzi spermidine synthase (TcSpdSyn) (Trypanosoma cruzi, UniProt Q4DA73); assay: X-ray co-crystal structure; SSAT1-coupled enzyme inhibition assay; format: biochemical
T1 construct: gene Tc00.1047053510339.50
T1 sequence (Q4DA73 1-296): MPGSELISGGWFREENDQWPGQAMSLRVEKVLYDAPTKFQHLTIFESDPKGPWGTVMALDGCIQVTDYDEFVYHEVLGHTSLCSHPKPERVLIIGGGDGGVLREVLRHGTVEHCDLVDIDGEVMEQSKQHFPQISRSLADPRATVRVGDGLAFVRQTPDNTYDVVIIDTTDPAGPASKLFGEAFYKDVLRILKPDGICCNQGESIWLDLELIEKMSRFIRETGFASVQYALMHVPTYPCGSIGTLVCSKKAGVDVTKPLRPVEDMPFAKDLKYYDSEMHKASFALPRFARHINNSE

[2] = target: T1, Trypanosoma cruzi spermidine synthase (TcSpdSyn); assay: X-ray co-crystal structure; SSAT1-coupled enzyme inhibition assay (hydrochloride salt); format: biochemical

IC50 [1] [µM] | IC50 [2] [µM] | Compound
82.3 |  | COc1ccc(C2=N[C@H](C)CN2)c(O)c1 [compound 1]
 | 43.4 | COc1ccc(Nc2ccnc3ccccc23)cc1 [compound 2]
